Test results taken from US8313744B2, “Composition for the prevention and treatment of absence seizures comprising PKC agonist as an effective ingredient” (Korea Institute of Science and Technology, priority 2010, dated 2012).

Legend:
Format in all cases: in vivo
[1] = tested on: PLCβ4 knock-out mouse; assay: SWD reduction by ethosuximide, EEG measurement; settings: 200 mg/kg intraperitoneal, EEG recorded 1 hour, starting 30 minutes after injection, compared with NaCl control
[2] = tested on: PLCβ4 knock-out mouse; assay: Change of SWD after injection of PKC agonist or calcium channel blocker into the thalamus relay nuclei, EEG measurement
[3] = tested on: PLCβ4 knock-out mouse; assay: Sensitivity to absence seizure inducing agents (GABAB receptor agonists), EEG measurement; settings: PLCβ4 knock-out mouse compared with normal mouse
[4] = 10 pmol injected into thalamus relay nuclei, compared with before / 0.9% NaCl

CCC1(C)CC(=O)NC1=O (centres unmarked) [ethosuximide]
SWD (spike-and-wave discharge) in EEG [1]: significantly reduced

CCCCCCCCCC(=O)O[C@@H]1[C@@H](C)[C@@]2(O)[C@@H](C=C(CO)C[C@]3(O)C(=O)C(C)=C[C@@H]23)[C@@H]2C(C)(C)[C@]12OC(=O)CCCCCCCCC [PDD, phorbol 12,13-didecanoate]
SWD (hourly number) in EEG [2, 4]: significantly reduced | SWD (hourly number) in EEG ([2]; 10 pmol injected into thalamus relay nuclei, compared with before / 0.9% NaCl, listed as phorbol 12,13-didecanoate): reduced

CCCCCCCCCCCCCC(=O)O[C@@H]1[C@@H](C)[C@@]2(O)[C@@H](C=C(CO)C[C@]3(O)C(=O)C(C)=C[C@@H]23)[C@@H]2C(C)(C)[C@]12OC(C)=O [PMA, phorbol 12-myristate 13-acetate]
SWD (hourly number) in EEG [2, 4]: significantly reduced | SWD (hourly number) in EEG ([2]; 10 pmol injected into thalamus relay nuclei, compared with before / 0.9% NaCl, listed as phorbol 12-myristate 13-acetate): reduced

COCC(=O)O[C@]1(CCN(C)CCCc2nc3ccccc3[nH]2)CCc2cc(F)ccc2[C@@H]1C(C)C [mibefradil]
SWD (hourly number) in EEG ([2]; 1 nmol injected into thalamus relay nuclei): significantly reduced

O=C1CCCO1 [γ-butyrolactone]
absence seizure specific SWD ([3]; after absence seizure inducing drug): increased | duration of paroxysmal SWD after drug administration ([3]; intraperitoneal, γ-butyrolactone 40 or 70 mg/kg, RS(+/−)-baclofen 20 mg/kg): continued even longer
